From patent US20110034335A1, “Treatment of Ornamental Plants” (priority 2009, published 2011)

Assays:
Type in all cases: in vivo
Kalanchoe = test: Spray with 1-MCP solutions with or without Silwet L-77, ethylene challenge (Example 2)
Procedure: (§1) Spray applications were made using (unless otherwise noted) AFxRD-038 powder containing 3.8% active ingredient, i.e. 1-MCP, and also containing dextrose, alpha-cyclodextrin, and amino acid salt. Rates listed are for active ingredient e.g. 5 mg active ingredient per liter. Sprayed liquid contained (unless otherwise noted) AFxRD-038 powder added to water. AFxRD-038 powder was obtained from AgroFresh Inc. The water used (unless otherwise noted) was tap water. Applications were done in 500 ml spray bottles at rates typical for growth regulators applications in the ornamental industry i.e., 200 ml per square meter. Spraying was done within 5-15 minutes of mixing the formulation. Plants were allowed to dry for 1-4 hours before being challenged with ethylene (2 ppm for about 16 hours at ambient temperatures).
(§2) Surfactant Silwet™ L-77 (called “surf” below) was sometimes included to evaluate the effect of surfactant on efficacy. Silwet™ L-77 was used in the form of a pure liquid. The amounts shown below as “ml/L” refer to milliliters of pure Silwet™ L-77 per liter of liquid CP composition.
(§3) Kalanchoe (unknown cultivar), ‘Candy Stripe’ phlox and ‘Sonnet’ snapdragon (all in pots of diameter 10 cm (4 inch)) were sprayed with 1-MCP solutions, with or without Silwet™ L-77 surfactant (specific gravity 1.007), and challenged with ethylene.
(§4) For Kanlanchoe, we observed the percent of plants on which one or more flowers died by wilting, whether or not it stayed on the plant. For Phlox and Snapdragon, we observed the percent of plants on which one or more flowers or one or more buds underwent abscission.

‘Candy Stripe’ phlox = test: as above; conditions: for Bud or Flower Abscission (%): Day 5
Procedure: as §1, §2, §3, §4

‘Sonnet’ snapdragon = test: as above; conditions: for Bud or Flower Abscission (%): Day 5
Procedure: as §1, §2, §3, §4

Regal Geranium ‘Camelot’ = test: Spray with 1-MCP solutions with or without surfactant, ethylene challenge (Example 4)
Procedure: as §1, §2
(§5) Flower loss (%) on Regal Geranium cultivars, ‘Camelot’ and ‘Jewel’ (in pots), sprayed with 1-MCP solutions with or without surfactant (Silwet™ L-77) and challenged with ethylene.

Regal Geranium ‘Jewel’ = test: as above
Procedure: as §1, §2, §5

Geranium = test: Shelf life after low-concentration spray (Example 9); conditions: EthylBloc powder in distilled water
From the text: (§6) Spray liquid was EthylBloc™ powder (contains 0.14% by weight 1-MCP, plus alpha-cyclodextrin and dextrose, obtained from Floralife Inc.) in distilled water. The shelf lives of sprayed and non-sprayed control plants were observed, with the following results: […]

Impatiens = test: as above; conditions: EthylBloc powder in distilled water
From the text: as §6

New Guinea Impatiens = test: as above; conditions: EthylBloc powder in distilled water
From the text: as §6

Asclepias = test: Nursery plants sprayed, boxed and shipped, quality rating (Example 10); conditions: 50 mg/L of 1-MCP; after 5 days shipping; 0 (poor) to 2 (good)
Procedure: (§7) A range of nursery plants that often show quality problems during shipping were chosen including Datura (tropical), Mini-rose, Delphinium (sun perennial), Verbena (sun perennial), Asclepias (sun perennial), Delosperma (groundcover), Myosotis (shade perennial) and Primula (shade perennial).
(§8) Spray liquid had 50 mg/L of 1-MCP. Sprayed and unsprayed control plants, all of which were blooming, were packed in boxes according to standard procedures and shipped under commercial conditions. After 5 days plants were unpacked and given a quality rating, from 0 (poor) to 2 (good).

Datura (tropical) = test: as above; conditions: 50 mg/L of 1-MCP; after 5 days shipping; 0 (poor) to 2 (good)
Procedure: as §7, §8

Delosperma = test: as above; conditions: 50 mg/L of 1-MCP; after 5 days shipping; 0 (poor) to 2 (good)
Procedure: as §7, §8

Delphinium = test: as above; conditions: 50 mg/L of 1-MCP; after 5 days shipping; 0 (poor) to 2 (good)
Procedure: as §7, §8

Mini-rose = test: as above; conditions: 50 mg/L of 1-MCP; after 5 days shipping; 0 (poor) to 2 (good)
Procedure: as §7, §8

Myosotis = test: as above; conditions: 50 mg/L of 1-MCP; after 5 days shipping; 0 (poor) to 2 (good)
Procedure: as §7, §8

Primula = test: as above; conditions: 50 mg/L of 1-MCP; after 5 days shipping; 0 (poor) to 2 (good)
Procedure: as §7, §8

Verbena = test: as above; conditions: 50 mg/L of 1-MCP; after 5 days shipping; 0 (poor) to 2 (good)
Procedure: as §7, §8

[1] = 1-MCP 5 mg/L, surf. 0 ml/L, Day 1 (Day 1/Day 2 column pair)
[2] = 1-MCP 5 mg/L, surf. 0 ml/L, Day 1 (Day 1/Day 7 column pair)
[3] = 1-MCP 5 mg/L, surf. 0 ml/L, Day 2
[4] = 1-MCP 5 mg/L, surf. 0 ml/L, Day 7
[5] = 1-MCP 5 mg/L, surf. 2 ml/L, Day 1, phytotoxicity was observed
[6] = 1-MCP 5 mg/L, surf. 2 ml/L, Day 2, phytotoxicity was observed
[7] = 1-MCP 10 mg/L, surf. 0 ml/L, Day 1
[8] = 1-MCP 10 mg/L, surf. 0 ml/L, Day 7
[9] = 1-MCP 25 mg/L, surf. 0 ml/L, Day 1
[10] = 1-MCP 25 mg/L, surf. 0 ml/L, Day 7
[11] = 1-MCP 50 mg/L, surf. 0 ml/L, Day 1 (Day 1/Day 2 column pair), phytotoxicity was observed
[12] = 1-MCP 50 mg/L, surf. 0 ml/L, Day 1 (Day 1/Day 7 column pair), phytotoxicity was observed
[13] = 1-MCP 50 mg/L, surf. 0 ml/L, Day 2, phytotoxicity was observed
[14] = 1-MCP 50 mg/L, surf. 0 ml/L, Day 7, phytotoxicity was observed
[15] = 1-MCP 50 mg/L, surf. 2 ml/L, Day 1, phytotoxicity was observed
[16] = 1-MCP 50 mg/L, surf. 2 ml/L, Day 2, phytotoxicity was observed

Structure (SMILES): CC1=CC1 [1-MCP, 1-methylcyclopropene]
- protection against ethylene (Kalanchoe; 1-MCP 5 mg/L): sufficient in giving protection against ethylene
- Flower Wilting (%) (Kalanchoe; 1-MCP 5 mg/L, surf 0 ml/L, Day 5): 7.9%
- Flower Wilting (%) (Kalanchoe; 1-MCP 5 mg/L, surf 0 ml/L, Day 15): 11.9%
- Flower Wilting (%) (Kalanchoe; 1-MCP 5 mg/L, surf 0.25 ml/L, Day 5): 7.3%
- Flower Wilting (%) (Kalanchoe; 1-MCP 5 mg/L, surf 0.25 ml/L, Day 15): 8.7%
- Flower Wilting (%) (Kalanchoe; 1-MCP 10 mg/L, surf 0 ml/L, Day 5): 5.6%
- Flower Wilting (%) (Kalanchoe; 1-MCP 10 mg/L, surf 0 ml/L, Day 15): 6.7%
- Flower Wilting (%) (Kalanchoe; 1-MCP 10 mg/L, surf 0.25 ml/L, Day 5): 5.5%
- Flower Wilting (%) (Kalanchoe; 1-MCP 10 mg/L, surf 0.25 ml/L, Day 15): 6.8%
- Flower Wilting (%) (Kalanchoe; 1-MCP 25 mg/L, surf 0 ml/L, Day 5): 4.6%
- Flower Wilting (%) (Kalanchoe; 1-MCP 25 mg/L, surf 0 ml/L, Day 15): 7.2%
- Flower Wilting (%) (Kalanchoe; 1-MCP 25 mg/L, surf 0.25 ml/L, Day 5): 6.2%
- Flower Wilting (%) (Kalanchoe; 1-MCP 25 mg/L, surf 0.25 ml/L, Day 15): 7.4%
- phytotoxicity (Kalanchoe; 1-MCP 50 mg/L): did not result in any phytotoxicity
- Flower Wilting (%) (Kalanchoe; 1-MCP 50 mg/L, surf 0 ml/L, Day 5): 6.7%
- Flower Wilting (%) (Kalanchoe; 1-MCP 50 mg/L, surf 0 ml/L, Day 15): 7.5%
- Flower Wilting (%) (Kalanchoe; 1-MCP 50 mg/L, surf 0.25 ml/L, Day 5): 5.7%
- Flower Wilting (%) (Kalanchoe; 1-MCP 50 mg/L, surf 0.25 ml/L, Day 15): 6.7%
- protection against ethylene (‘Candy Stripe’ phlox; 1-MCP 5 mg/L): sufficient in giving protection against ethylene
- Bud or Flower Abscission (%) (‘Candy Stripe’ phlox; 1-MCP 5 mg/L, surf 0 ml/L): 21.4%
- Bud or Flower Abscission (%) (‘Candy Stripe’ phlox; 1-MCP 5 mg/L, surf 0.25 ml/L): 26.0%
- Bud or Flower Abscission (%) (‘Candy Stripe’ phlox; 1-MCP 10 mg/L, surf 0 ml/L): 17.3%
- Bud or Flower Abscission (%) (‘Candy Stripe’ phlox; 1-MCP 10 mg/L, surf 0.25 ml/L): 22.8%
- Bud or Flower Abscission (%) (‘Candy Stripe’ phlox; 1-MCP 25 mg/L, surf 0 ml/L): 15.8%
- Bud or Flower Abscission (%) (‘Candy Stripe’ phlox; 1-MCP 25 mg/L, surf 0.25 ml/L): 21.2%
- Bud or Flower Abscission (%) (‘Candy Stripe’ phlox; 1-MCP 50 mg/L, surf 0 ml/L): 44.1%
- Bud or Flower Abscission (%) (‘Candy Stripe’ phlox; 1-MCP 50 mg/L, surf 0.25 ml/L): 40.0%
- phytotoxicity to the open florets (‘Candy Stripe’ phlox; the highest rates of 1-MCP): caused phytotoxicity to the open florets
- protection against ethylene (‘Sonnet’ snapdragon; 1-MCP 5 mg/L): sufficient in giving protection against ethylene
- Bud or Flower Abscission (%) (‘Sonnet’ snapdragon; 1-MCP 5 mg/L, surf 0 ml/L): 19.9%
- Bud or Flower Abscission (%) (‘Sonnet’ snapdragon; 1-MCP 5 mg/L, surf 0.25 ml/L): 0.0%
- Bud or Flower Abscission (%) (‘Sonnet’ snapdragon; 1-MCP 10 mg/L, surf 0 ml/L): 4.4%
- Bud or Flower Abscission (%) (‘Sonnet’ snapdragon; 1-MCP 10 mg/L, surf 0.25 ml/L): 3.3%
- Bud or Flower Abscission (%) (‘Sonnet’ snapdragon; 1-MCP 25 mg/L, surf 0 ml/L): 7.4%
- Bud or Flower Abscission (%) (‘Sonnet’ snapdragon; 1-MCP 25 mg/L, surf 0.25 ml/L): 3.3%
- phytotoxicity on flowers (‘Sonnet’ snapdragon; 1-MCP 50 mg/L): did not result in any phytotoxicity
- Bud or Flower Abscission (%) (‘Sonnet’ snapdragon; 1-MCP 50 mg/L, surf 0 ml/L): 6.4%
- Bud or Flower Abscission (%) (‘Sonnet’ snapdragon; 1-MCP 50 mg/L, surf 0.25 ml/L): 8.9%
- phytotoxicity to the open florets (‘Sonnet’ snapdragon; the highest rates of 1-MCP): caused phytotoxicity to the open florets
- Flower Loss (%) (Regal Geranium ‘Camelot’; [1]): 45 ^ %
- Flower Loss (%) (Regal Geranium ‘Camelot’; [2]): 62%
- Flower Loss (%) (Regal Geranium ‘Camelot’; [3]): 64^ %
- Flower Loss (%) (Regal Geranium ‘Camelot’; [4]): 46%
- Flower Loss (%) (Regal Geranium ‘Camelot’; [5]): 5^(3) %
- Flower Loss (%) (Regal Geranium ‘Camelot’; [6]): 24^(3) %
- Flower Loss (%) (Regal Geranium ‘Camelot’; [7]): 20%
- Flower Loss (%) (Regal Geranium ‘Camelot’; [8]): 0%
- Flower Loss (%) (Regal Geranium ‘Camelot’; [9]): 28%
- Flower Loss (%) (Regal Geranium ‘Camelot’; [10]): 27%
- Flower Loss (%) (Regal Geranium ‘Camelot’; [11]): 0^(3) %
- Flower Loss (%) (Regal Geranium ‘Camelot’; [12]): 0^(3) %
- Flower Loss (%) (Regal Geranium ‘Camelot’; [13]): 0^(3) %
- Flower Loss (%) (Regal Geranium ‘Camelot’; [14]): 48^(3) %
- Flower Loss (%) (Regal Geranium ‘Camelot’; [15]): 5^(3) %
- Flower Loss (%) (Regal Geranium ‘Camelot’; [16]): 44^(3) %
- Flower Loss (%) (Regal Geranium ‘Jewel’; [1]): 84^ %
- Flower Loss (%) (Regal Geranium ‘Jewel’; [2]): 90%
- Flower Loss (%) (Regal Geranium ‘Jewel’; [3]): 100 ^ %
- Flower Loss (%) (Regal Geranium ‘Jewel’; [4]): 76%
- Flower Loss (%) (Regal Geranium ‘Jewel’; [5]): 65^(3) %
- Flower Loss (%) (Regal Geranium ‘Jewel’; [6]): 100^(3) %
- Flower Loss (%) (Regal Geranium ‘Jewel’; [7]): 85%
- Flower Loss (%) (Regal Geranium ‘Jewel’; [8]): 68%
- Flower Loss (%) (Regal Geranium ‘Jewel’; [9]): 52%
- Flower Loss (%) (Regal Geranium ‘Jewel’; [10]): 43%
- Flower Loss (%) (Regal Geranium ‘Jewel’; [11]): 28^(3) %
- Flower Loss (%) (Regal Geranium ‘Jewel’; [12]): 26^(3) %
- Flower Loss (%) (Regal Geranium ‘Jewel’; [13]): 82^(3) %
- Flower Loss (%) (Regal Geranium ‘Jewel’; [14]): 65^(3) %
- Flower Loss (%) (Regal Geranium ‘Jewel’; [15]): 35^(3) %
- Flower Loss (%) (Regal Geranium ‘Jewel’; [16]): 81^(3) %
- Shelf Life (Geranium; 1-MCP 0.03 mg/L): 3 days
- Shelf Life (Geranium; 1-MCP 0.32 mg/L): 4 days
- Shelf Life (Impatiens; 1-MCP 0.03 mg/L): 3 days
- Shelf Life (Impatiens; 1-MCP 0.32 mg/L): 5 days
- Shelf Life (New Guinea Impatiens; 1-MCP 0.03 mg/L): 4 days
- Shelf Life (New Guinea Impatiens; 1-MCP 0.32 mg/L): 7 days
- Quality Rating, Sprayed (Asclepias): 1.5
- Quality Rating, Sprayed (Datura (tropical)): 2.0
- Quality Rating, Sprayed (Delosperma): 1.3
- Quality Rating, Sprayed (Delphinium): 1.0
- Quality Rating, Sprayed (Mini-rose): 1.8
- Quality Rating, Sprayed (Myosotis): 0.5
- Quality Rating, Sprayed (Primula): 1.0
- Quality Rating, Sprayed (Verbena): 0.5
